# According to PubChem BioAssay (NCI):
#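 Briefly, cells in 96-well plates were exposed to five compound concentrations for 48 h, and endpoints were estimated by linear interpolation. The concentration for 50% growth inhibition is given as GI50. TGI denotes the concentration required for complete inhibition of growth.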
# Columns and labels:
# Assay in all cases: NCI tumour cell line growth inhibition, 48 h
# [1] = test system: IGROV1 ovarian
# [2] = test system: PC-3 prostate
# [3] = test system: COLO 205 colon
# [4] = test system: M14 melanoma
# [5] = test system: OVCAR-3 ovarian
# [6] = test system: OVCAR-4 ovarian
# [7] = test system: UO-31 renal
# [8] = test system: KM12 colon
# [9] = test system: 786-0 renal
# [10] = test system: LOX IMVI melanoma
SMILES,GI50 [1] [µM],TGI [1] [µM],GI50 [2] [µM],TGI [2] [µM],GI50 [3] [µM],TGI [3] [µM],GI50 [4] [µM],TGI [4] [µM],TGI [5] [µM],GI50 [6] [µM],TGI [6] [µM],GI50 [7] [µM],TGI [7] [µM],GI50 [8] [µM],TGI [8] [µM],GI50 [9] [µM],TGI [9] [µM],TGI [10] [µM],GI50 [10] [µM],GI50 [5] [µM]
C[As](C)SCC(COC(=O)c1ccccc1)OC(=O)c1ccccc1 (centres undefined),0.918,17.1,0.358,15.7,0.0514,1.88,0.0588,1.86,0.023,1.74,> 32.2,0.763,8.06,0.384,7.92,0.1,0.556,–,–,–
O=C1[C@@H]2C3C=CC([C@H]4C(=O)N(CO)C(=O)[C@@H]34)[C@@H]2C(=O)N1CO,–,> 100,–,–,–,> 77.8,–,> 75.2,> 100,–,> 100,–,> 100,–,> 100,–,> 63.6,> 61,–,–
COc1cc(/C=C/C(=O)C(C)(C)C)cc(OC)c1OC,–,–,–,–,–,> 100,–,> 100,> 100,–,> 100,–,> 100,–,52.7,–,> 100,44,–,–
O=c1c2ccccc2nc(-c2ccccc2Cl)n1NC1OC(CO)C(O)C(O)C1O (centres undefined),–,> 100,–,–,–,> 100,–,> 100,> 100,–,> 100,–,> 100,–,> 100,–,> 100,–,–,–
O=C1c2cccc3cc4ccccc4c(c23)C(=O)N1CCCNCCNCCCN1C(=O)c2cccc3cc4ccccc4c(c23)C1=O,–,1.72,–,1.43,–,–,–,2.21,1.86,–,1.58,–,1.96,–,1.29,–,1.69,–,–,–
S=C(N/N=C/c1ccccc1)NC1CC(c2ccccc2)Oc2ccccc21 (centres undefined),–,> 100,–,–,–,> 100,–,> 100,28.7,–,71.3,–,> 100,–,> 100,–,> 100,> 100,–,–
CC(=O)/C=C\C(=O)NNS(=O)(=O)c1ccc(C)cc1,–,> 100,–,–,–,> 100,–,> 100,> 100,–,> 100,–,> 100,–,> 100,–,> 100,> 100,–,–
COc1ccc(C2CC(c3cccc(Nc4ccnc5cc(Cl)ccc45)c3)=NN2c2ccc(Cl)cc2)cc1 (centres undefined),18.8,> 100,1.18,64.5,3.78,19.7,0.752,11,> 100,–,–,1.87,31.3,0.713,23.9,2.94,44,13.6,1.3,11
Cc1nn(C(=O)CC(=O)Nc2ccccc2Cl)c(C)c1N=Nc1ccccc1Cl,–,> 100,–,–,–,> 100,–,> 100,> 100,–,> 100,–,> 100,–,> 100,–,> 100,> 100,–,–
Cn1cnc2nc(Cl)nc(Cl)c21,2.47,37.7,0.594,12.8,2.18,5.27,–,–,6.12,4.7,17.6,9.96,> 100,0.43,2.46,1.01,> 100,16.8,0.406,1.84
O=S(O)CCCSSCCCCSSCCCS(=O)O,–,> 100,–,–,–,> 100,–,> 100,> 100,–,> 100,–,> 100,–,> 100,–,> 100,> 100,–,–
N#Cc1c(-c2ccc(Cl)cc2)n([O-])c2ccccc2[n+]1=O,2.89,15.6,3.26,13,23,54.4,–,–,2.88,2.94,8.82,13.7,29.7,14.3,28.7,12.5,25,20.3,5.72,1.27
CC(=O)NC(Cc1ccccc1)C(=S)N1CCCC1 (centres undefined),–,> 100,–,–,–,> 100,–,> 100,> 100,–,> 100,–,> 100,–,> 100,–,> 100,> 100,–,–
C/C(=C1/N=C(c2ccccc2)OC1=O)c1cccs1,–,> 100,–,> 100,–,> 100,–,> 100,> 100,–,> 100,–,–,–,> 100,–,> 100,> 100,–,–
COc1ccc2nccc(C3OC(=O)N4CCC(=O)CC34)c2c1 (centres undefined),–,> 100,–,–,–,> 100,–,> 100,> 100,–,> 100,–,> 100,–,> 100,–,> 100,> 100,–,–
CC(=O)NC1C(=O)CC(c2ccccc2)N(C)C1c1ccccc1 (centres undefined),–,> 100,–,–,–,> 100,–,> 100,> 100,–,> 100,–,> 100,–,> 100,–,> 100,> 100,–,–
NCCN.O=N[O-].O=N[O-].O=N[O-].O=N[O-].[Co+3].[K+],> 100,> 100,–,–,> 100,> 100,> 100,> 100,> 100,> 100,> 100,> 100,> 100,> 100,> 100,> 100,> 100,> 100,> 100,> 100
O=c1[nH]c2cccccc-2c1-c1nc2ccccc2[nH]1,–,> 100,–,–,–,> 100,–,> 100,–,–,51.9,–,86.6,–,> 100,–,41,> 100,–,–
O=C1OC2C(O)COC2(OCc2c[nH]c3ccccc23)C1O (centres undefined) (tested in a mixture with another compound),–,> 100,–,–,–,> 100,–,> 100,> 100,–,> 100,–,> 100,–,> 100,–,> 100,> 100,–,–
COc1cc(OC)c(-c2oc3ccccc3c(=O)c2O)c(OC)c1,–,> 100,–,> 100,–,> 100,–,> 100,–,–,–,–,> 100,–,> 100,–,> 100,> 100,–,–
